Reference: US20100178316A1, “EXTENDED RELEASE OF BIOACTIVE MOLECULES FROM SILICONE HYDROGELS” (priority 2007, published 2010)

Experiments:
Assay type in all cases: physicochemical
[1] = Packaging test: drug lost from drug-loaded silicone hydrogel to PBS packaging solution; conditions: 0.1 mm thick GEL1, 1.75 cm diameter, loaded from drug-ethanol solution
Experimental: (§1) Commercial contact lenses are typically packaged in about 1-1.5 ml of packaging solution such as PBS. To estimate the effects of packaging on drug release behavior of silicone hydrogel appliances, packaging tests were conducted. A 0.1 mm thick silicone hydrogel was cut into circular pieces of 1.75 cm diameter and a drug was loaded by soaking the silicone hydrogel in a drug-ethanol solution. A 0.1 mm thick piece of GEL1 was loaded with a drug by soaking in drug-ethanol solution of 6.4 mg/ml for timolol and 4.8 mg/ml for DXA. The GEL1 pieces were then blotted with wipes to remove excess drug-ethanol solution from the pieces. The pieces were dried in air overnight before conducting the packaging tests. The silicone hydrogels were then stored in 1 ml of PBS (packaging) solution in a sealed vials for 1.3 or 2 months, and subsequently the appliance was placed in 2 ml of fresh PBS solution. The release of the drug over time is plotted in FIG. 17 and FIG. 18 for timolol and DXA, respectively. For timolol, about 364 μg and 404 μg of drug were lost to the packaging solution for the appliance stored for 1.3 months and 2 months, respectively. The residual drug released into the fresh PBS solution at an average rate of 0.09 mg/(g of gel·day) for 20 days, and then at a lower rate for another 2 months as shown in FIG. 17. […]

[2] = Drug release into fresh PBS solution after packaging storage; conditions: 2 ml fresh PBS
Experimental: as §1

[3] = Drug release experiments from ethanol-loaded silicone hydrogel pieces soaked in PBS; conditions: GEL1 to GEL4, 0.1-0.4 mm thick, loaded from 0.64 or 6.4 mg/mL ethanol solution
Experimental: Drugs were individually loaded into individual square pieces of the gels by soaking a gel in 2 or 2.5 mL of a drug-ethanol solution for a period of 3 hours. At the end of three hours the gel was taken out and excess drug-ethanol solution was blotted from the surface of the piece with wipes. The gels were dried in air overnight, and subsequently used for drug release experiments. Results of drug release experiment are given below for three drugs (dexamethasone (DX), dexamethasone acetate (DXA) and timolol) which were individually loaded into different gel pieces.
Drug release experiments were conducted by soaking the square shaped drug containing gel pieces, prepared as described in Example 1, in Dulbecco's phosphate buffered saline (PBS). The volume of the PBS was varied depending on the thickness of the gel to maintain a constant volume ratio of gel to PBS for all samples. The gels of 0.1 mm, 0.2 mm, and 0.4 mm thickness were soaked in 1.5 mL, 3 mL, 6 mL of PBS, respectively.
In like manner to Examples 1, 2 and 3, timolol release experiments were conducted with square pieces of the gels of three different thicknesses for the four different compositions prepared in Example 1 (GEL1 to GEL4), with two different drug loadings by varying the concentration of the drug-ethanol solution used. […]

In the case of CC(C)(C)NC[C@H](O)COc1nsnc1N1CCOCC1 [timolol], the “drug lost to the packaging solution” value ([1]; stored in 1 ml PBS for 1.3 months) is reported as “about 364 μg”, the “drug lost to the packaging solution” value ([1]; stored in 1 ml PBS for 2 months) is reported as ~404 µg and the “further release at a lower rate, duration” value ([2]; 0.1 mm thick GEL1 after packaging, after the first 20 days) is reported as 2 months. For the same compound, the “average release rate of residual drug into fresh PBS solution” value ([2]; 0.1 mm thick GEL1 loaded from 6.4 mg/ml ethanol solution, after packaging, for 20 days) was 0.09 mg/(g of gel·day), the “initial burst release (in words)” value [3] was “initial burst is small in each system” and the “release behaviour from gels into PBS (in words)” value [3] was “all gels release timolol over a long period of time”.
